Laboratory results published in patent US9346797B1, “2-amino 6-(difluoromethyl)-5,5-difluoro-6-phenyl-3,4,5,6-tetrahydropyridines as BACE1 inhibitors” (H. Lundbeck A/S, priority 2014, dated 2016).
Read-outs that look alike come from different tables or passages of the source.

Tests used:
P-gp (MDR1) = assay: MDCK-MDR1 assay (permeability/efflux); assay type: in vitro ADME; conditions: dog, Papp BA/Papp AB, 60-minute incubation, Pgp substrate when ≧2
Method: The permeability of the test compounds was assessed in MDCK-MDR1 cells that were cultured to confluency (4-6 days) in a 96 transwell plate. Test compounds were diluted with the transport buffer (HBSS+1% BSA) to a concentration of 0.5 μM and applied to the apical or basolateral side of the cell monolayer. Permeation of the test compounds from A to B direction or B to A direction was determined in triplicate over a 60-minute incubation time at 37° C. and 5% CO2 with a relative humidity of 95%. Test compounds were quantified by LC-MS/MS analysis based on the peaks area ratios of analyte/IS in both the receiver and donor wells of the transwell plate.
The apparent permeability coefficient Papp (cm/s) was calculated using the equation: Papp=(dCr/dt)×Vr/(A×C0)
Where dCr/dt is the cumulative concentration of compound in the receiver chamber as a function of time (μM/s); Vr is the solution volume in the receiver chamber (0.05 mL on the apical side; 0.25 mL on the basolateral side); A is the surface area for the transport, i.e. 0.0804 cm^2 for the area of the monolayer; CO is the initial concentration in the donor chamber (μM).
Compounds are classified Pgp substrates when efflux ratio (Papp BA/Papp AB) is ≧2.

Aβ40 = assay: Assessment of Aβ levels in rat brain and plasma following BACE1 inhibition (Aβ40 ELISA); assay type: in vivo; conditions: 3 hours post dose, vs vehicle
Method: (§1) Young adult Male Sprague Dawley rats of approximately 250 g weight were purchased from Charles River and received 0-30 mg/kg of vehicle (10% HP betaCD+1M MeSO4, pH 2.5) or test compounds (dissolved in vehicle) only by oral gavage (p.o). The compounds are dosed at a volume of 5 ml/kg. Cohorts of 5-10 animals were established for each treatment condition.
(§2) At T=180 minutes after initial dosing the animals were stunned and decapitated with a guillotine. Trunk-blood was sampled in EDTA coated tubes after decapitation of the animal. The blood was centrifuged at 2200 G at 4° C. for 15 minutes and the plasma was collected and frozen at −80° C. The blood was aliquoted for Aβ ELISA and DMPK analysis Immediately following sacrifice, the brain was extracted and split into 2 halves. The right hemibrains were snap frozen on dry ice and stored at −80° C. The left half was dissected; with the front forebrain taken for Aβ ELISA and the remainder used for DMPK analysis. These samples were also snap frozen on dry ice and stored at −80° C. until use for analysis.
The cortex samples were thawed slightly on wet ice before they were homogenized with a small volume dispersing instrument (T10 basic ULTRA-TURRAX®) which was set at speed 5 for approximately 5-7 sec. The tissue was processed in a 10 times volume of the weight, for example 100 mg of tissue was homogenized in 1000 μL of Homogenization buffer. Homogenization buffer: 50 ml Milli Q water+50 nM NaCl+0.2% Diethylamin (DEA)+1 tablet of Complete Protease inhibitor cocktail+1 nM 4-(2-aminoethyl) benzenesulfonyl fluoride hydrochloride irreversible serine protease inhibitor (AEBSF).
After homogenization 450 μL aliquots of the samples are collected into a 1.5 ml Eppendorf tube and placed on wet ice, 0.5% NP-40 (50 ul) was added to all samples and then they were incubated on ice for 30 min. After which all samples were sonicated using an Ultrasonic homogenizer with 20 kHz homogeneous sound (SONOPLUS HD2070, Bandelin Electronic) 10 pulse set at 12-13% power to extract all the Aβ species. The samples were then centrifuged (Ole Dich 157 MPRF Micro centrifuge) at 20000 G for 20 minutes at 4° C. After centrifugation 285 μL of the supernatant was pipetted into 600 μL microtubes tubes and neutralized with 15 μL of 1M Tris-HCL buffer.
WAKO 294-62501 Human/Rat Abeta amyloid (40) kit was used for all ELISA analyses. 30 μL plasma samples or 30 μL of the cortex supernatants generated as described above were placed in 600 μL microtubes tubes on wet ice. To this 30 μL of 8M Urea (AppliChem A1049, 9025) are added to generate a 2-fold dilution. Both plasma and cortex supernatants are incubated on ice for 30 min. Standard rows were prepared from the standard peptide stock provided in the kit and standard diluent containing 1.6M Urea (200 μL 8M Urea+800 μL of standard diluent) and 0.8M Urea (400 μL 8M Urea+3600 μL Standard diluent). A serial 2-fold dilution of Aβ40 from 100 pmol/ml to 0 pmol/L was prepared for the assay.
After incubation with urea, all samples were further diluted by addition of 5 times standard diluent from the Kit. This was done by adding 240 μL Standard Diluent to 60 μL sample/urea mixture, which was then mixed well. 100 μL of each diluted sample was pipetted into designated wells of the ELISA plate in duplicates. The plate was then covered and incubated overnight at 4° C. The following day, the ELISA kit was brought to room temperature before use. The incubated plate was washed 5 times with the 20× washing solution diluted in Milli Q water. 100 μL HRP-conjugate was applied to each well, and the plate was covered and incubates at 4° C. for 1 hr. The wash was repeated again for 5 times. 100 μL 3,3′,5,5′-Tetramethylbenzidine (TMB) solution was applied to each well and the plate was covered and incubated in the dark at room temperature for 30 minutes. […]

[1] = Bioanalysis of brain and plasma samples (exposure, UPLC-MS/MS); assay type: in vivo; conditions: male, Sprague Dawley, po, rat, 3 hours post dose; for Kp at 3 h: brain/plasma, read-out: Brain/Plasma ratio; for concentration at 3 h: read-out: Exp
Method: as §1, §2
TC was determined in plasma and brain homogenate using UltraPerformance LC® (UPLC®) chromatography followed by tandem-MS (MS/MS) detection.
Brain homogenate was prepared by homogenizing the brain 1:4 (v/v) with water:2-propanol:DMSO (50:30:20 v/v/v) followed by centrifugation and collection of the supernatant. Calibration standards and QC samples were prepared using a Hamilton robot. 150 μL of ISTD in acetonitrile (1 ng/mL ISTD) was added to 25 μL of calibration standards, QC samples and test samples (plasma and brain homogenate) using a Biomek robot. After centrifugation (6200 g, 4° C., 20 min) 100 μL supernatant from each sample was transferred to a new plate and mixed with 100 μL water with 0.1% formic acid using a Biomek robot (method file InVivo transfer). After a quick centrifugation (6200 g, 4° C., 5 min) the samples were placed in the auto-sampler.
MS/MS detection was done with an Applied Biosystems Sciex API 4000 instrument in positive-ion electrospray ionisation mode. TC and ISTD were detected at a parent>daughter mass to charge ratio (m/z). Nitrogen was used for the nebulizer and collision gases. The peak area correlated linearly with the plasma and brain concentration of the analytes in the range of 1.00-1000 ng/mL plasma and 5.00-5000 ng/g brain (corrected for dilution). If the plasma/brain sample drug concentration was above 1000 ng/mL or 5000 ng/g, the sample was diluted appropriately in blank plasma/blank brain homogenate before analysis. […]

efflux ratio at 60 min, 0.5 μM (P-gp (MDR1)) | Kp at 3 h ([1]; 10 mg/kg p.o.) | Kp at 3 h ([1]; 30 mg/kg p.o.) | concentration at 3 h ([1]; brain, 10 mg/kg p.o.) | concentration at 3 h ([1]; brain, 30 mg/kg p.o.) | concentration at 3 h ([1]; plasma, 10 mg/kg p.o.) | concentration at 3 h ([1]; plasma, 30 mg/kg p.o.) | SMILES | Aβ40 reduction (Aβ40; brain, 10 mg/kg p.o.) | Aβ40 reduction (Aβ40; brain, 30 mg/kg p.o.) | Aβ40 reduction (Aβ40; plasma, 10 mg/kg p.o.) | Aβ40 reduction (Aβ40; plasma, 30 mg/kg p.o.)
0.99 | 0.28 | 0.29 | 187 ng/g | 959 ng/g | 660 ng/g | 3350 ng/g | COc1ccc(C(=O)Nc2ccc(F)c([C@@]3(C(F)F)N=C(N)CCC3(F)F)c2)nc1 [Compound 5, (S)—N-(3-(6-amino-2-(difluoromethyl)-3,3-difluoro-2,3,4,5-tetrahydropyridin-2-yl)-4-fluorophenyl)-5-methoxypicolinamide] | 5% | 36% | 40% | 49%
1.22 | 0.3 | 0.32 | 511 ng/g | 2280 ng/g | 1680 ng/g | 7060 ng/g | COc1cnc(C(=O)Nc2ccc(F)c([C@@]3(C(F)F)N=C(N)CCC3(F)F)c2)cn1 [Compound 3, (S)—N-(3-(6-amino-2-(difluoromethyl)-3,3-difluoro-2,3,4,5-tetrahydropyridin-2-yl)-4-fluorophenyl)-5-methoxypyrazine-2-carboxamide] | 24% | 38% | 39% | 42%
